Entries after “also recorded” stand apart in the source; their conditions may differ.
What was measured:
soybean = test: Phytotoxic effect of scopoletin in soybean; settings: soybean plants treated with scopoletin
Phakopsora pachyrhizi [1] = test: In vivo spore germination test on Arabidopsis leaves; set-up: species or system Phakopsora pachyrhizi on Arabidopsis thaliana; settings: 1 mM scopoletin, assessed 48 h after infection
Arabidopsis = test: Phytotoxic effect of scopoletin in Arabidopsis; format: in vivo; settings: Arabidopsis plants treated with 1 mM scopoletin
Method: For pre-treatment experiments Arabidopsis plants were sprayed with—1 mM scopoletin (solved in H2O, 0.01% Tween-20); incubated for 6 h at short day conditions and subsequently inoculated with 1 mg/ml P. pachyrhizi uredospores. For co-treatment experiments spores of Phakopsora pachyrhizi were solved in 0.01% Tween-20 supplemented with 1 mM scopoletin. Following inoculation plants were covered with moistened plastic domes to ensure high humidity and incubated at short day conditions (see above). 24 h later plastic domes were removed and plants incubated at the same conditions for another 24 h. Leaves were harvested 2 dpi and destained on tissue soaked with a saturated (2.5 g/ml) chloralhydrate solution. Germination and penetration on destained leaves was determined by quantitative microscopic analysis.

Phakopsora pachyrhizi [2] = test: In vitro germination test of Phakopsora pachyrhizi spores on glass slides; format: cell-based; settings: 6 h
Fusarium graminearum = format: cell-based; settings: 1 mM scopoletin in PDA, compared with PDA+methanol
Phakopsora pachyrhizi [3] = test: Soybean rust diseased leaf area on scopoletin-treated soybean plants; format: in vivo, Phakopsora pachyrhizi on soybean

Structure (SMILES): COc1cc2ccc(=O)oc2cc1O [scopoletin]
- phytotoxic effect leading to pleiotropic effects (soybean): never observed
- germination of Phakopsora pachyrhizi spores on Arabidopsis leaves (Phakopsora pachyrhizi [1]; co-application with inoculation): drastically reduced formation of germinated spores
- germination of Phakopsora pachyrhizi spores on Arabidopsis leaves (Phakopsora pachyrhizi [1]; co-application with inoculation, listed as Scopoletin): strongly inhibited
- germination of Phakopsora pachyrhizi spores on Arabidopsis leaves (Phakopsora pachyrhizi [1]; pre-treatment 6 h before inoculation): drastically reduced formation of germinated spores
- germination of Phakopsora pachyrhizi spores on Arabidopsis leaves (Phakopsora pachyrhizi [1]; pre-treatment 6 h before inoculation, listed as Scopoletin): strongly inhibited
- phytotoxic effect leading to pleiotropic effects (Arabidopsis): never observed any phytotoxic effect
- germination and appressorium formation of Phakopsora pachyrhizi spores (Phakopsora pachyrhizi [2]; 10 μM, 100 μM, 500 μM and 1 mM scopoletin in water, glass slides, dose dependent): decreases the germination and appressoria formation in a dose dependent manner; also recorded: strongly inhibited
- spore germination in-vitro (Phakopsora pachyrhizi [2]; 1 mM scopoletin): completely abolishes spore germination
- reduction of the Fusarium graminearum growth rate per day (Fusarium graminearum): 61%
- diseased leaf area caused by Phakopsora pachyrhizi infection (Phakopsora pachyrhizi [3]; soy plants, 1 mM scopoletin, co-application, primary, first and second trifoliate leaves, 12 dpi): drastically reduced formation of infected leaf area; also recorded: strongly reduced
- diseased leaf area caused by Phakopsora pachyrhizi infection (Phakopsora pachyrhizi [3]; soy plants, 1 mM scopoletin, pre-treatment 6 h before inoculation, primary, first and second trifoliate leaves, 12 dpi): drastically reduced formation of infected leaf area; also recorded: strongly reduced
- diseased leaf area caused by Phakopsora pachyrhizi infection (Phakopsora pachyrhizi [3]; soybean leaves, co-application of 10 μM, 100 μM or 1 mM scopoletin, dose dependent): strongly reduced in a dose dependent manner
